# How the values were obtained:
# [1] = test system: Integrin β3 (Itgb3) mRNA; assay: qRT-PCR of integrin β3 mRNA in atorvastatin-treated zebrafish larvae; format: in vivo, zebrafish (Danio rerio); details: 1 μmol/L atorvastatin plus 500 nmol/L drug, n=3
# Procedure: qRT-PCR was used to assess relative expression of selected genes (an average of two biological trial and three technical replicates and each trial is a pool of 60 larvae/treatment), using β-actin as the housekeeping gene control. 3 dpf, Tg(Flk:GFP; Gata:dsRed) zebrafish larvae were used for RNA extraction and cDNA synthesis. Atorvastatin and drug treatment were performed as previously mentioned in drug screening. Total RNA was extracted from these larvae (a pool of 50-60 larvae/treatment) using the RNeasy extraction kit (Qiagen, Mississauga, ON, CAN) and treated with DNase. The concentration of total RNA was determined spectrophotometrically at 260/280 nm using a NanoDrop™ spectrophotometer. First-strand cDNA was synthesized from 1 μg of total RNA using random hexamer primers.
# In each case, forward primer is shown on the top and reverse primer on the bottom.
# PCR was carried out in a 20 μl total volume and included 1×PCR buffer, 1.25 mM MgCl2, 0.25 mM dNTP, 1 U Taq polymerase, 0.5 μmol/L forward, and reverse primers and 1 μl cDNA.
# [2] = test system: ICH induced by anti-β3 integrin serum in neonatal mice; assay: Anti-β3 integrin mouse model of intracerebral hemorrhage; format: in vivo, β3+/− mice (neonates)
# Description: An anti-β3 integrin model of intracerebral hemorrhage (ICH) was generated according to our previously reported methods (Yougbare I, Lang S, Yang H et al. Maternal anti-platelet beta3 integrins impair angiogenesis and cause intracranial hemorrhage. J Clin Invest 2015; 125:1545-1556). Briefly, serum containing anti-β3 antibodies was generated by immunizing β3−/− female mice with gel-filtered wild type platelets via tail-vein injections twice a week. To detect anti-β3 antibody, blood was collected from the saphenous vein of immunized female mice and left to clot. […]
# For the integrin ICH model, brains were taken out of the skull, cut at the mid-coronal position and assessed in a binary manner for whether or not there was any evidence of ICH. […]
# Brains were scanned using 7T Burker MRI with 16-channel solenoid coils. […] Following the reconstruction of images and applying image distortion correction algorithms, all brains were processed and analyzed for total volume of brain and total volume of hemorrhage. Quantification was done using percentage of bleeding (normalized to each brain size). […] Lastly, quantification was done in a blinded fashion. All quantifications and 3D reconstructions were performed using a combination of Display and Amira processing software.
# [3] = test system: bbh mutant zebrafish (mutation in βPix), spontaneous ICH; assay: bbh (bubblehead) mutant genetic model of brain hemorrhage; format: in vivo, zebrafish (Danio rerio); details: Danio rerio, read-out: EC50 to rescue brain hemorrhage, bbh Mutant Model
# Description: A specific zebrafish line with a gene mutation called bubblehead (bbh) was used. This line has spontaneous ICH. Bubblehead phenotype is caused by a mutation in βPix. Adult homozygous zebrafish were viable and fertile. […] More than 85% of zebrafish larvae display an ICH phenotype.
smiles,measurement,setting,value
CO[C@H]1O[C@@H]2O[C@@]3(C)CC[C@H]4[C@H](C)CC[C@@H]([C@H]1C)[C@@]24OO3 [Artemether],Integrin β3 transcription level (qRT-PCR),[1],upregulation
same,ICH incidence,"[2]; 25 mg/kg i.p. with anti-β3 sera at P2, n=24, model control 77%",47%
same,Total volume of ICH (MRI),"[2]; preliminary data, data not shown, vs controls",reduced
same,EC50,[3],0.0375 µM

# — patent US10292991B2, “Small molecule therapeutic compounds that reduce the incidence of intracerebral hemorrhage and brain microhemorrhages” (St. Michaels Hospital, priority 2016, dated 2019)
